Source: PMC12656268, “Venom Peptides Across Asian and American Tarantulas Utilize Dual Pharmacology to Target Activation and Fast Inactivation of Voltage-Gated Sodium Channels” (Toxins, 2025)
Positions of bridges follow the written chain, without caps; N, C: chain ends. Residues, ends and D or L forms follow the SMILES beside them.

What was measured:
NaV1.3 = NaV1.3 (Homo sapiens, UniProt Q9NY46); experiment: Slowing of fast inactivation of NaV1.3; format: cell-based
Experimental: Sodium channel currents were recorded from HEK293 cells expressing human NaV isoforms together with the β1 auxiliary subunit (SB Drug Discovery, Glasgow, UK) using the QPatch 16X automated whole-cell patch-clamp platform (Sophion Bioscience A/S, Ballerup, Denmark). The external recording solution contained (in mM) the following: 140 NaCl, 3 KCl, 1 CaCl2, 1 MgCl2, 0.1 CdCl2, 20 tetraethylammonium chloride (TEA-Cl), and 5 HEPES; pH was adjusted to 7.3 and osmolarity to 320 mOsm. The internal (pipette) solution consisted of (in mM) the following: 140 CsF, 10 NaCl, 10 HEPES, and 1/5 EGTA/CsOH, also adjusted to pH 7.3 and 320 mOsm. Cells were voltage-clamped at a holding potential of −80 mV, and inward Na^+ currents were evoked by 20 ms depolarizing pulses to 0 mV following a 200 ms hyperpolarizing prepulse to −120 mV. To obtain concentration–response curves, cells at holding potential were incubated for 5 min with increasing concentrations of Oa1a peptides. For determining the potency of Oa1a peptides to inhibit peak current, the maximum peak current within the 20 ms at 0 mV was measured. For determining the potency of Oa1a-NH2 to slow fast inactivation, peak current values were measured at 20 ms of the 0 mV depolarization step. Ion currents (INa) were plotted as I/Imax, where I = current value and Imax = highest current value within the experiment.
(§1) For calcium influx experiments, bioactivity comparisons between venom fractions and controls were based on the difference between the maximal and minimal fluorescence intensity values obtained from single-replicate assays. Electrophysiological data analysis was conducted using GraphPad Prism (version 8; GraphPad Software, San Diego, CA, USA). Nonlinear regression was applied to fit the concentration–response relationships using a variable Hill slope: log(inhibitor) versus normalized response for determining IC50 values, and log(agonist) versus normalized response for EC50 calculations. Reversibility and dissociation kinetics were analyzed by fitting data with a single-phase exponential decay model, while voltage-dependence of steady-state activation and inactivation parameters were derived from Boltzmann sigmoid fits of normalized conductance (G/Gmax) or current (I/Imax) values to determine the half-activation or half-inactivation voltages (V50). Data are expressed as mean ± SEM, where n represents the number of individual cells analyzed.

hNaV1.1 to hNaV1.7 = experiment: NaV subtype preference across NaV1.1 to NaV1.7, patch clamp; format: cell-based, human; conditions: NaV1.1 to NaV1.7, closed-state voltage protocol
Experimental: Unless otherwise specified, all cell culture reagents were obtained from Life Technologies (Carlsbad, CA, USA). The human neuroblastoma cell line SH-SY5Y (ATCC CRL-2266; Manassas, VA, USA) was maintained in RPMI medium supplemented with 15% fetal bovine serum (FBS) and 2 mM L-glutamine. HEK293 cells stably expressing human NaV channel isoforms together with the β1 auxiliary subunit (SB Drug Discovery, Glasgow, UK) were propagated in Minimal Essential Medium (MEM; Sigma-Aldrich, St. Louis, MO, USA) containing 10% FBS, 100 U/mL penicillin, 100 µg/mL streptomycin, 2 mM L-glutamine, and selective antibiotics (blasticidin, geneticin, and zeocin) at concentrations recommended by the supplier. HEK293T cells expressing the human CaV3.2 channel (a generous gift from Prof. Emmanuel Bourinet, Institut de Génomique Fonctionnelle, Université de Montpellier, France, and Prof. Edward Perez-Reyes, University of Virginia School of Medicine, USA) were grown in Dulbecco’s MEM supplemented with 10% FBS, 100 U/mL penicillin, 100 µg/mL streptomycin, and 750 µg/mL geneticin.
Sodium channel currents were recorded from HEK293 cells expressing human NaV isoforms together with the β1 auxiliary subunit (SB Drug Discovery, Glasgow, UK) using the QPatch 16X automated whole-cell patch-clamp platform (Sophion Bioscience A/S, Ballerup, Denmark). The external recording solution contained (in mM) the following: 140 NaCl, 3 KCl, 1 CaCl2, 1 MgCl2, 0.1 CdCl2, 20 tetraethylammonium chloride (TEA-Cl), and 5 HEPES; pH was adjusted to 7.3 and osmolarity to 320 mOsm. The internal (pipette) solution consisted of (in mM) the following: 140 CsF, 10 NaCl, 10 HEPES, and 1/5 EGTA/CsOH, also adjusted to pH 7.3 and 320 mOsm. […] For determining the potency of Oa1a peptides to inhibit peak current, the maximum peak current within the 20 ms at 0 mV was measured. For determining the potency of Oa1a-NH2 to slow fast inactivation, peak current values were measured at 20 ms of the 0 mV depolarization step. […]
as §1, with “Electrophysiological data analysis was conducted using GraphPad Prism (version 8; GraphPad Software, San Diego, CA, USA). Nonlinear regression was applied to fit the concentration–response relationships using a variable Hill slope: log(inhibitor) versus normalized response for determining IC50 values, and log(agonist) versus normalized response for EC50 calculations.” left out

NaV1.3, sequence (Q9NY46 whole entry, canonical isoform): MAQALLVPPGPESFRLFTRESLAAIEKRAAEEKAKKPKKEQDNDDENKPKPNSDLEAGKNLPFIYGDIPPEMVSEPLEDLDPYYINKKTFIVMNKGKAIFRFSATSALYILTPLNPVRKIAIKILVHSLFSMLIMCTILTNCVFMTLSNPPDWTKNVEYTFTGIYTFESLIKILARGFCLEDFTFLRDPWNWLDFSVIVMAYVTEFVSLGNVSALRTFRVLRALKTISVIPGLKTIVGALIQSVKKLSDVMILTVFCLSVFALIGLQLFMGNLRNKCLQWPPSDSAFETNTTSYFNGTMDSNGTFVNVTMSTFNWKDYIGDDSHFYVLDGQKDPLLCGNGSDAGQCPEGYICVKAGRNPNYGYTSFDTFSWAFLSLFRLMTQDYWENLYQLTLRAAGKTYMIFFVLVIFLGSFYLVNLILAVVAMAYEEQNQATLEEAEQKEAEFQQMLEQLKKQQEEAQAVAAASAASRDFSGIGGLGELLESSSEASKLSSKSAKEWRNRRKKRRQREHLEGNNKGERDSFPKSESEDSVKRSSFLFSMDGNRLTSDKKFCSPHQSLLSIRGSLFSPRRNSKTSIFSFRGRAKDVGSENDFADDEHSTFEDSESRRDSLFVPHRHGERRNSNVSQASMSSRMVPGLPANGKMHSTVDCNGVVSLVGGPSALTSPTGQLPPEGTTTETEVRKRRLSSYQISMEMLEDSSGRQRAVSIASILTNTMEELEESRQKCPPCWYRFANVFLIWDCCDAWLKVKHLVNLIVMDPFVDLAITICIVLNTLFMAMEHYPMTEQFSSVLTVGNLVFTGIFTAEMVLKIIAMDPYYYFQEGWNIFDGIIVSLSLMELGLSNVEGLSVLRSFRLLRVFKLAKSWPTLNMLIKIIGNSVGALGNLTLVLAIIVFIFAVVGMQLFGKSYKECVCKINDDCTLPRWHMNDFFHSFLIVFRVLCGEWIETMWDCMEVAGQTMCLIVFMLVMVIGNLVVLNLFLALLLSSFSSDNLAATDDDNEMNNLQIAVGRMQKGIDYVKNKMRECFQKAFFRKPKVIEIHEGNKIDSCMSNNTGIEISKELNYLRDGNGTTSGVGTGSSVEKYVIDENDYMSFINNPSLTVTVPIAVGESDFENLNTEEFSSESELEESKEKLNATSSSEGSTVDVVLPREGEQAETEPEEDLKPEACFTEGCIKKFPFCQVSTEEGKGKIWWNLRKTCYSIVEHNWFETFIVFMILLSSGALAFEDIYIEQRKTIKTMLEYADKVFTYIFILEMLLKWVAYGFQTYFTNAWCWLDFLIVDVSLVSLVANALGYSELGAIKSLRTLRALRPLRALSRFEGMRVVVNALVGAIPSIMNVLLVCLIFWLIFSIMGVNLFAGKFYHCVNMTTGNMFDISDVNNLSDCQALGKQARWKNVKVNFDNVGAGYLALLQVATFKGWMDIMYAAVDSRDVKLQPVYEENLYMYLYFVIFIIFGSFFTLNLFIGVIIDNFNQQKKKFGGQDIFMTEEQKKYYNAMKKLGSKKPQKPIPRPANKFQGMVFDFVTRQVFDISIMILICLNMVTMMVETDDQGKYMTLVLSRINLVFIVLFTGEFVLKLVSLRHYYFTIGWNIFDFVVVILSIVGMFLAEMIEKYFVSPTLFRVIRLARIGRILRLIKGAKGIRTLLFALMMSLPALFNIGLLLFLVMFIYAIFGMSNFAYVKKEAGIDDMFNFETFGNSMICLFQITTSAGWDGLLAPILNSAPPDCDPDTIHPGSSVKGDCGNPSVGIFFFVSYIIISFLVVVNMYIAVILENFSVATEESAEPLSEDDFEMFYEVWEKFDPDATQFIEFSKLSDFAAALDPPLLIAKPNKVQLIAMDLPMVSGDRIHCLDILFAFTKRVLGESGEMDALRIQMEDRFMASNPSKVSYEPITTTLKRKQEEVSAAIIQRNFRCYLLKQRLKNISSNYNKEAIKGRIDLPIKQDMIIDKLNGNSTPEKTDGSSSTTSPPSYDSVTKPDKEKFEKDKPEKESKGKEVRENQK
NaV1.3, sequence (Q07699 19-218, further chain): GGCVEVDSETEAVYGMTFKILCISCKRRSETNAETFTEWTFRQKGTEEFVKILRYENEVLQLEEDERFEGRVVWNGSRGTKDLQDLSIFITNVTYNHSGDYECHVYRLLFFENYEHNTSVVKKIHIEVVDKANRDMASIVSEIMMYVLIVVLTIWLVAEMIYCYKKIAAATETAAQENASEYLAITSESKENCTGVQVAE

Question: `CC(C)C[C@@H]1NC(=O)[C@H](Cc2ccccc2)NC(=O)[C@H](Cc2ccc(O)cc2)NC(=O)[C@H](CCCNC(=N)N)NC(=O)[C@@H](NC(=O)[C@H](CCC(=O)O)NC(=O)CN)CSSC[C@@H]2NC(=O)[C@@H]3CSSC[C@@H](C(=O)N[C@H](C(=O)N[C@@H](Cc4c[nH]c5ccccc45)C(=O)N[C@@H](CC(=O)O)C(=O)N[C@@H](Cc4c[nH]c5ccccc45)C(=O)N[C@H](C(=O)N[C@@H](Cc4ccccc4)C(=O)O)[C@@H](C)O)C(C)C)NC(=O)[C@H](Cc4c[nH]c5ccccc45)NC(=O)[C@H](CCC(N)=O)NC(=O)[C@H](Cc4c[nH]cn4)NC(=O)[C@H](CCCCN)NC(=O)[C@H](CC(N)=O)NC(=O)[C@H](Cc4c[nH]cn4)NC(=O)[C@H](CSSC[C@H](NC(=O)CNC(=O)CNC1=O)C(=O)N[C@@H](CO)C(=O)N[C@@H](CCC(N)=O)C(=O)NCC(=O)N[C@@H](CCC(=O)O)C(=O)N[C@@H](CCCCN)C(=O)N3)NC(=O)[C@H](C(C)C)NC(=O)[C@H](CC(C)C)NC(=O)[C@H](Cc1c[nH]cn1)NC(=O)[C@H](CCC(=O)O)NC2=O` [rOa1a] (H-GECRYFLGGCSQGEKCCEHLVCHNKHQWCVWDWTF-OH; disulfide 3-17, 10-22, 16-29; N-terminus and C-terminus assumed) was tested. Which “Slowing of fast inactivation of NaV1.3 (in words)” value (NaV1.3; closed-state voltage protocol, current traces, concentrations up to those of IC50 curves) did it give?
Answer: strongly slowing the fast inactivation of NaV1.3

Question: And the “Fold less potency in slowing fast inactivation of NaV1.3 compared to sOa1a-NH2” value (NaV1.3; ratio of EC50 values)?
Answer: 4.8 fold

Question: And the “NaV subtype preference of inhibition (in words)” value (hNaV1.1 to hNaV1.7)?
Answer: preference for inhibiting NaV1.2, NaV1.3, NaV1.6, and NaV1.7

Question: And the “NaV subtype preference of inhibition (in words)” value (hNaV1.1 to hNaV1.7; listed as recombinant Oa1a)?
Answer: preference for inhibiting NaV1.2, NaV1.6, and NaV1.7
